Measurements reported in patent US9732081B2, “1,6-diazabicyclo [3,2,1] octan-7-one derivatives and their use in the treatment of bacterial infections” (WOCKHARDT LIMITED, priority 2012, dated 2017).
Converted amounts (≈) assume the structure as drawn. Where two headings read alike, the source gives them in different places.

Tests used:
Type in all cases: cell-based
E. Coli W 13353 = assay: Antibacterial activity (MIC, agar dilution per CLSI) against E. Coli W 13353; conditions: for MIC: Escherichia coli
Experimental: (§1) The biological activity of representative compounds according to the invention against various bacterial strains was investigated. In a typical study, overnight grown bacterial cultures were diluted appropriately and inoculated on the agar media containing doubling dilutions of the test compounds. Observation for growth or no growth was performed after 16-20 hours of incubation at 35±2° C. in ambient air. The overall procedure was performed as per Clinical and Laboratory Standards Institute (CLSI) recommendations (Clinical and Laboratory Standards Institute (CLSI), Performance Standards for Antimicrobial Susceptibility Testing, 20th Informational Supplement, M 100-S20, Volume 30, No. 1, 2010).
(§2) The activities are expressed as MICs (mcg/ml).

E. Coli H 483 = assay: Antibacterial activity (MIC, agar dilution per CLSI) against E. Coli H 483; conditions: for MIC: Escherichia coli, read-out: MIC E. Coli H 483
Experimental: as §1, §2

E. Coli M 50 = assay: Antibacterial activity (MIC, agar dilution per CLSI) against E. Coli M 50; conditions: for MIC: Escherichia coli
Experimental: as §1, §2

P. aeruginosa Ps 21 = assay: Antibacterial activity (MIC, agar dilution per CLSI) against P. aeruginosa Ps 21; conditions: for MIC: Pseudomonas aeruginosa
Experimental: as §1, §2

E. Coli W 13351 = assay: Antibacterial activity (MIC, agar dilution per CLSI) against E. Coli W 13351; conditions: for MIC: Escherichia coli
Experimental: as §1, §2

E. Coli W 13352 = assay: Antibacterial activity (MIC, agar dilution per CLSI) against E. Coli W 13352; conditions: for MIC: Escherichia coli
Experimental: as §1, §2

P. aeruginosa Ps 32 = assay: Antibacterial activity (MIC, agar dilution per CLSI) against P. aeruginosa Ps 32; conditions: for MIC: Pseudomonas aeruginosa
Experimental: as §1, §2

[1] = MDR Gram negative strain, Class A ESBL, 16-20 hours at 35±2° C., read-out: MIC E. Coli W 13353
[2] = MDR Gram negative strain, Class C ESBL, agar dilution, 16-20 hours at 35±2° C.
[3] = MDR Gram negative strain, Class C ESBL, 16-20 hours at 35±2° C., read-out: MIC E. Coli M 50
[4] = PS21, MDR P. aeruginosa strain, agar dilution, 16-20 hours at 35±2° C., read-out: MIC Ps 21
[5] = MDR Gram negative strain, Class A ESBL, 16-20 hours at 35±2° C., read-out: MIC E. Coli W 13351
[6] = MDR Gram negative strain, Class A ESBL, 16-20 hours at 35±2° C., read-out: MIC E. Coli W 13352
[7] = PS32, MDR P. aeruginosa strain, agar dilution, 16-20 hours at 35±2° C., read-out: MIC Ps 32
[8] = MDR Gram negative strain, Class A ESBL, 16-20 hours at 35±2° C.
[9] = MDR Gram negative strain, Class C ESBL, 16-20 hours at 35±2° C.
[10] = MDR P. aeruginosa strain, agar dilution, 16-20 hours at 35±2° C.

SMILES | MIC (E. Coli W 13353; [1]) [µg/mL] | MIC (E. Coli H 483; [2]) [µg/mL] | MIC (E. Coli M 50; [3]) [µg/mL] | MIC (P. aeruginosa Ps 21; [4]) [µg/mL] | MIC (E. Coli W 13351; [5]) [µg/mL] | MIC (E. Coli W 13352; [6]) [µg/mL] | MIC (P. aeruginosa Ps 32; [7]) [µg/mL] | MIC E. Coli W 13353 (E. Coli W 13353; [8]) [µg/mL] | MIC E. Coli M 50 (E. Coli M 50; [9]) [µg/mL] | MIC E. Coli W 13351 (E. Coli W 13351; [8]) [µg/mL] | MIC E. Coli W 13352 (E. Coli W 13352; [8]) [µg/mL] | also measured
O=C(NOC[C@H]1CCCN1)[C@@H]1CC[C@@H]2CN1C(=O)N2OS(=O)(=O)O [Example 2, (2S,5R)-7-oxo-N-[(2R)-pyrrolidin-2-ylmethyloxy]-6-(sulfooxy)-1,6-diazabicyclo[3.2.1]octane-2-carboxamide] | 1 (≈ 2.74 µM) | > 32 | 1 (≈ 2.74 µM) | > 32 | 2 (≈ 5.49 µM) | 2 (≈ 5.49 µM) | > 32 | – | – | – | – | –
O=C(NOC[C@@H]1CCNC1)[C@@H]1CC[C@@H]2CN1C(=O)N2OS(=O)(=O)O [Example 4, (2S,5R)-7-oxo-N-[(3R)-pyrrolidin-3-ylmethyloxy]-6-(sulfooxy)-1,6-diazabicyclo[3.2.1]octane-2-carboxamide] | 8 (≈ 22 µM) | > 32 | 8 (≈ 22 µM) | > 32 | 8 (≈ 22 µM) | 8 (≈ 22 µM) | > 32 | – | – | – | – | –
O=C(NOCC1CCCCN1)[C@@H]1CC[C@@H]2CN1C(=O)N2OS(=O)(=O)O (stereo partly drawn) [Example 17, (2S,5R)-7-oxo-N-((2R,S)piperidin-2-ylmethyloxy)-6-(sulfooxy)-1,6-diazabicyclo[3.2.1]octane-2-carboxamide] | – | – | – | – | – | – | – | 0.5 (≈ 1.32 µM) | 0.5 (≈ 1.32 µM) | 1 (≈ 2.64 µM) | 1 (≈ 2.64 µM) | MIC E. Coli H 483 (E. Coli H 483; [2]): >32 µg/mL; MIC Ps 21 (P. aeruginosa Ps 21; [10]): >32 µg/mL; MIC Ps 32 (P. aeruginosa Ps 32; [10]): >32 µg/mL
O=C(NOC[C@@H]1CCCCN1)[C@@H]1CC[C@@H]2CN1C(=O)N2OS(=O)(=O)O [Example 19, (2S,5R)-7-oxo-N-((2S)piperidin-2-ylmethyloxy)-6-(sulfooxy)-1,6-diazabicyclo[3.2.1]octane-2-carboxamide] | – | – | – | – | – | – | – | 4 (≈ 10.6 µM) | 8 (≈ 21.1 µM) | 8 (≈ 21.1 µM) | 16 (≈ 42.3 µM) | MIC E. Coli H 483 (E. Coli H 483; [2]): >32 µg/mL; MIC Ps 21 (P. aeruginosa Ps 21; [10]): >32 µg/mL; MIC Ps 32 (P. aeruginosa Ps 32; [10]): >32 µg/mL
CN(C)c1cc(NC(=O)CNC(C)(C)C)c(O)c2c1C[C@H]1C[C@H]3[C@H](N(C)C)C(O)=C(C(N)=O)C(=O)[C@@]3(O)C(O)=C1C2=O [Tigecyclin, Tigecycline, reference compound] | – | – | – | – | – | – | – | – | – | – | – | MIC (E. Coli W 13353; read-out: MIC E. Coli W 13353, MDR Gram negative strain, Class A ESBL, 16-20 hours at 35±2° C.): 1 µg/mL (≈ 1.71 µM); MIC (E. Coli H 483): 0.5 µg/mL (≈ 0.854 µM); MIC (E. Coli M 50; read-out: MIC E. Coli M 50, MDR Gram negative strain, Class C ESBL, 16-20 hours at 35±2° C.): 0.5 µg/mL (≈ 0.854 µM); MIC (P. aeruginosa Ps 21; PS21, read-out: MIC Ps 21): 16 µg/mL (≈ 27.3 µM); MIC (E. Coli W 13351; read-out: MIC E. Coli W 13351, MDR Gram negative strain, Class A ESBL, 16-20 hours at 35±2° C.): 1 µg/mL (≈ 1.71 µM); MIC (E. Coli W 13352; read-out: MIC E. Coli W 13352, MDR Gram negative strain, Class A ESBL, 16-20 hours at 35±2° C.): 0.25 µg/mL (≈ 0.427 µM); MIC (P. aeruginosa Ps 32; PS32, read-out: MIC Ps 32): 16 µg/mL (≈ 27.3 µM)
C[C@H]1[C@H](NC(=O)/C(=N\OC(C)(C)C(=O)O)c2csc(N)n2)C(=O)N1S(=O)(=O)O [Aztreonam, reference compound] | > 32 | > 32 | > 32 | 8 (≈ 18.4 µM) | > 32 | > 32 | 8 (≈ 18.4 µM) | – | – | – | – | –
O=C(NOC[C@@H]1CCCCN1)[C@@H]1CC[C@@H]2CN1C(=O)N2OS(=O)(=O)O [Example 18, (2S,5R)-7-oxo-N-((2S)piperidin-2-ylmethyloxy)-6-(sulfooxy)-1,6-diazabicyclo[3.2.1]octane-2-carboxamide] | – | – | – | – | – | – | – | 0.5 (≈ 1.32 µM) | 1 (≈ 2.64 µM) | 1 (≈ 2.64 µM) | 1 (≈ 2.64 µM) | MIC (E. Coli H 483): > 32 µg/mL; MIC (P. aeruginosa Ps 21; PS21, read-out: MIC Ps 21): > 32 µg/mL; MIC (P. aeruginosa Ps 32; PS32, read-out: MIC Ps 32): > 32 µg/mL
C[C@@H](O)[C@H]1C(=O)N2C(C(=O)O)=C(SCCN=CN)C[C@H]12 [Imipenem, reference compound] | 0.25 (≈ 0.835 µM) | 1 (≈ 3.34 µM) | 0.5 (≈ 1.67 µM) | > 32 | 0.25 (≈ 0.835 µM) | 0.25 (≈ 0.835 µM) | > 32 | – | – | – | – | –
CC(C)(O/N=C(\C(=O)N[C@@H]1C(=O)N2C(C(=O)[O-])=C(C[n+]3ccccc3)CS[C@H]12)c1csc(N)n1)C(=O)O [Ceftazidime, reference compound] | 32 (≈ 58.5 µM) | > 32 | > 32 | > 32 | 32 (≈ 58.5 µM) | > 32 | > 32 | – | – | – | – | –
O=C(NOC[C@H]1CCNC1)[C@@H]1CC[C@@H]2CN1C(=O)N2OS(=O)(=O)O [Example 3, (2S,5R)-7-oxo-N-[(3S)-pyrrolidin-3-ylmethyloxy]-6-(sulfooxy)-1,6-diazabicyclo[3.2.1]octane-2-carboxamide] | 8 (≈ 22 µM) | > 32 | 8 (≈ 22 µM) | > 32 | 16 (≈ 43.9 µM) | 16 (≈ 43.9 µM) | > 32 | – | – | – | – | –
O=C(NOC1CCNC1)[C@@H]1CC[C@@H]2CN1C(=O)N2OS(=O)(=O)O (stereo partly drawn) [Example 30, (2S,5R)-7-oxo-N-[(3R,S)-pyrrolidin-3-yloxy]-6-(sulfooxy)-1,6-diazabicyclo[3.2.1]octane-2-carboxamide] | – | – | – | – | – | – | – | 4 (≈ 11.4 µM) | 4 (≈ 11.4 µM) | 8 (≈ 22.8 µM) | 8 (≈ 22.8 µM) | MIC E. Coli H 483 (E. Coli H 483; [2]): >32 µg/mL; MIC Ps 21 (P. aeruginosa Ps 21; [10]): >32 µg/mL; MIC Ps 32 (P. aeruginosa Ps 32; [10]): >32 µg/mL
O=C(NOC[C@@H]1CCCN1)[C@@H]1CC[C@@H]2CN1C(=O)N2OS(=O)(=O)O [Example 1, (2S,5R)-7-oxo-N-[(2S)-pyrrolidin-2-ylmethyloxy]-6-(sulfooxy)-1,6-diazabicyclo[3.2.1]octane-2-carboxamide] | 0.5 (≈ 1.37 µM) | > 32 | 0.5 (≈ 1.37 µM) | > 32 | 1 (≈ 2.74 µM) | 1 (≈ 2.74 µM) | > 32 | – | – | – | – | –
